# In patent US6740648B2, “Treatment of pulmonary hypertension” (Warner-Lambert Company, priority 2000, dated 2004):
# “Also recorded” adds a separate entry of the source. Structures can show the parent of a compound that is named as a salt.
# Key:
# [1] = Safety and tolerability in Phase I studies (approximately 250 subjects); assay type: in vivo, human
# [2] = tested on: AVP-induced platelet aggregation; assay: AVP-induced platelet aggregation in Phase I subjects (evidence of V1A antagonist activity); assay type: in vivo, human; settings: 20 mg/day orally or 2.5 mg IV
# [3] = Example 3: placebo-controlled study of YM087 40 mg IV twice, relief of pulmonary congestion in exacerbation of congestive heart failure; assay type: in vivo, human; settings: FIG. 8; listed as conivaptan, hydrochloride
# Protocol: Patient who meets the inclusion criteria will then be randomized to 1 of 2 treatment group: double-blind treatment phase. […] Patients were administered 100% oxygen for 5 to 10 minutes, and blood gases were measured for assessment of A-a gradient. A baseline respiratory rate is measured 5 minutes prior to administration of study medication (RR must be ≧22 to meet inclusion criteria). […] All patients received usual care at the discretion of the investigator including IV loop diuretics, oxygen, morphine, and IV vasodilators. All patients were administered IV furosemide 20 mg as a minimum dose initially. No additional doses of diuretics should be administered for at least 2 hours after administration of the first dose of study medication; the dose was subsequently adjusted as needed based on the patient's clinical status at the discretion of the investigator. […] Body weight was assessed prior the second dose of study medication. […] During the study, the patient should be receiving the same % oxygen for all respiratory rate and A-a gradient assessments. […] Clinical laboratory parameters were assessed 8 and 24 hours after the first dose of study medication. Serum electrolytes, BUN, and creatinine were measured 4, 8, 12, 18, and 24 hours after administration of the first dose of study medication.
# [4] = Example 2: placebo-controlled study of YM087 20 mg IV twice, relief of pulmonary congestion in acute decompensated heart failure; assay type: in vivo, human; settings: listed as conivaptan, hydrochloride
# Protocol: The trial explores the effect on relief of pulmonary congestion in patients with a history of NYHA Class II-IV heart failure hospitalized in a monitored unit for acute decompensated heart failure. Patients may be on background therapy optionally with ACE-inhibitors, diuretics, digoxin, and β-blockers as long as these medications (excepting diuretics) were initiated prior to admission. On arrival to the hospital, the patient was assessed for enrollment criteria. If the criteria are met, consent was obtained and the patient enrolled. Patients needing treatment with a parenteral inotropic agent (eg milrinone; dobutamine) or who are intubated are excluded. Respiratory rate will be measured. Clinical laboratory parameters are measured if not assessed within 2 hours of screening. Once consented, the patient's clinical distress was assessed by vital signs, the Acute Heart Failure Score, the Physician/Study Coordinator Clinical Assessment Scale for patient's respiratory and global status, and the Patient Visual Analog Scale for respiratory and global status. […] The baseline respiratory rate was measured 5 minutes prior to administration of study medication (must be ≧24 to meet inclusion criteria). […] Clinical laboratory parameters were assessed 8 and 24 hours after start of the first infusion of study medication. […]
# [5] = tested on: AVP-induced dermal vasoconstriction; assay: AVP-induced dermal vasoconstriction in Phase I subjects; assay type: in vivo, human; settings: 50 mg IV
# [6] = Example 1: double-blind, placebo-controlled IV dose-response study of cardiopulmonary hemodynamics in patients with Class III/IV heart failure; assay type: in vivo, human
# Protocol: Patients must be receiving background therapy of diuretics, ACE inhibitors, and optionally digoxin and/or β-blocker; patients are stratified as to whether they are receiving concomitant β-blocker treatment. Patients should take their daily dose of concomitant heart failure medications within 2 hours of catheter insertion. No additional doses of background heart failure medications should be administered during the study treatment phase. After insertion of a balloon-flotation pulmonary artery catheter, serial measurements are obtained over an 8-to 18-hour baseline and stabilization period.
# Hemodynamic parameters and vital signs are measured at baseline during the 2 hours prior to drug administration and 30 minutes, 1, 2, 3, 4, 6, 8, and 12 hours after start of the IV infusion. A urethral catheter is placed and urine output is measured hourly for 2 hours prior until 12 hours post-study drug administration. Fluid intake is restricted to 250 mL every 2 hours (except at time of IV infusion) from time of insertion of a Swan-Ganz catheter and throughout the treatment period. […] Serum electrolytes, BUN, creatinine, and serum osmolality are measured at baseline and 4 and 12 hours post treatment. Clinical laboratory and vasopressin plasma levels are measured at baseline and 12 hours post-drug administration. A numeric rating scale for assessing dyspnea is administered at baseline and 12 hours after study drug administration.
# Patients refrain from taking concomitant heart failure medications during the 12-hour treatment period. Patients are stratified as to whether they are receiving concomitant treatment with a β-blocker. Hemodynamic parameters (cardiac output, intrapulmonary and systemic pressures) and vital signs are measured at 0.5, 1, 2, 3, 4, 6, 8, and 12 hours after start of the IV infusion. Clinical laboratory and vasopressin plasma levels are measured 12 hours postdose. […] Serum electrolytes, BUN, creatinine and serum osmolality are measured at 4 and 12 hours posttreatment. Hourly urine output measurements are obtained during the entire 12-hour treatment phase. The numeric rating scale for assessing dyspnea is administered 12 hours postadministration of study medication.
# For this study, hemodynamic efficacy parameters of PCWP, CI, SVR, and PVR are evaluated in terms of their response profile. The response profile is assessed in terms of peak change, and area under the curve (AUC) delimited by the parameter change from baseline and measurement times. The peak change is defined as the maximum change from baseline, within the 3 to 6 hours after treatment administration, in the hemodynamic parameter of interest. The baseline value is considered the last acceptable measurement taken before treatment administration. The AUC is determined using the “linear trapezoidal rule,” which delimits areas of each trapezoid by: two points on the graph of change from baseline against time, perpendiculars from the points to the X-axis, and the X-axis are summed up to get AUC. If measurements are missing at certain times, the AUC are calculated using all other available observations. Dose response over the treatment groups are assessed for selected measures.
# The secondary parameter of urine output is summarized at baseline, and each collection time. In addition, a numeric rating scale is used for assessing dyspnea. The corresponding change from baseline for these parameters is summarized. Descriptive summaries include mean, standard error, median, minimum, and maximum. Other concurrently measured hemodynamic parameters (ie, RA, PAs, PAd, cuff SBP, cuff DBP, calculated MAP, and HR) is also summarized.
# Hemodynamic assessments are obtained at baseline and at 0.5, 1, 2, 3, 4, 6, 8, and 12 hours after administration of study medication.
# V2-receptor = target: T1, V2-receptor (Homo sapiens, UniProt P30518); assay: Aquaretic action in normal subjects (evidence of V2-receptor antagonism); assay type: in vivo; settings: for Dose at which aquaretic action with decrease in urine osmolarity starts: normal subjects
# T1 construct: from tissue; host or cells: healthy human subjects in vivo (renal effect)
# [7] = approximately 250 subjects treated
# T1 sequence (P30518 whole entry): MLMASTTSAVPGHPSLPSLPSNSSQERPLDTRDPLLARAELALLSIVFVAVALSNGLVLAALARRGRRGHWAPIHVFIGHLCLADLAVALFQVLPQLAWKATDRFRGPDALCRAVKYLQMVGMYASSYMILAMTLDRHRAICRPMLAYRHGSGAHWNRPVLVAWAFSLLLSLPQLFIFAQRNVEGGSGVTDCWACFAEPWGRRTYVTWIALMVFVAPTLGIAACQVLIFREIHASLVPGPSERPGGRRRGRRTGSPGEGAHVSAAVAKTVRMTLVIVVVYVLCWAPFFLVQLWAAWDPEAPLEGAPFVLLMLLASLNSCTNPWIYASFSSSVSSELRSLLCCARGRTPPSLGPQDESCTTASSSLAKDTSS
smiles,measurement,setting,value
"Cc1nc2c([nH]1)-c1ccccc1N(C(=O)c1ccc(NC(=O)c3ccccc3-c3ccccc3)cc1)CC2 [YM087, N-[4-(2-methyl-4,5,6-tetrahydroimidazo[4,5-d][1]benzazepin-6-ylcarbonyl)phenyl]biphenyl-2-carboxamide hydrochloride]",Tolerability of aquaretic effects at higher doses,"[1]; 120 mg QD or 60 mg BID orally, or 50 mg IV",too uncomfortable to be tolerable
same,Drug-related serious adverse events,[1]; [7],no drug-related serious adverse events were reported
same,Major safety concerns,[1]; [7],no major safety concerns were identified
same,Urinary osmolarity,[1]; at higher doses,decreased
same,Plasma osmolarity,"[1]; at higher doses, with or without an increase in plasma sodium",increased
same,Biochemical or hematological laboratory parameters,"[1]; human, in vivo",No drug-related trend
same,Most frequent adverse events regardless of treatment association,"[1]; human, in vivo",mild or moderate thirst and mild headache
same,Vital signs (blood pressure and heart rate),"[1]; human, in vivo",unaffected
same,Other adverse events,"[1]; human, in vivo, hydrochloride","flushes, a sensation of cold extremities, abdominal complaints, abnormal stools, syncope, dizziness, palpitations, and postural hypotension"
same,Grand mal seizure,"[1]; one patient with severe heart failure, 40 mg BID",grand mal seizure that was possibly related to YM087
same,Leukopenia / decrease in white blood cell counts,"[1]; three subjects who received YM087, one who received placebo, hydrochloride","minor, reversible decrease in white blood cell counts; also recorded: minor, reversible leukopenia"
same,Inhibition of AVP-induced platelet aggregation,[2],Inhibition
same,Alveolar-arterial gradient compared to placebo,[3],improved; also recorded: apparent improvement
same,Patient visual analog scale of respiratory status,[4]; FIG. 6,improved respiratory status; also recorded: improvement
same,Patient numeric rating scale of respiratory status,[4]; FIG. 7,improved respiratory status; also recorded: improvement
same,Inhibition of AVP-induced dermal vasoconstriction,[5],Total inhibition
same,Reduction of right atrial pressure (RAP),"[6]; 40 mg IV dose, FIG. 1",≤ 3 mm Hg
same,Reduction of pulmonary artery systolic pressure (PAs),"[6]; 40 mg IV dose, FIG. 2",≤ 4 mm Hg
same,Right atrial pressure (RAP),[6]; FIG. 1,reduce
same,Pulmonary artery systolic pressure (PAS),[6]; FIG. 2,reduce
same,Mean arterial pressure (MAP),[6]; FIG. 3,no effect
same,Systolic blood pressure (SBP),[6]; FIG. 4,no effect
same,Systemic hemodynamics,"[6]; human, in vivo",no effect
same,Changes in inspiratory crackles compared to placebo,"[6]; post IV dose of 10, 20, 40 mg, FIG. 9",fewer patients on conivaptan had worsened inspiratory crackles
same,Duration of increased urine production rate postdosing,V2-receptor; IV 50 mg/day,≤ 6 h
same,Duration of increased urine production rate postdosing,V2-receptor; IV doses up to 250 μg/kg,up to 3 hours
same,Dose at which aquaretic action with decrease in urine osmolarity starts,V2-receptor; IV,0.05 mg/kg
same,Dose at which aquaretic action with decrease in urine osmolarity starts,V2-receptor; oral,15 mg
